Reference: ChEMBL document CHEMBL1152804, “Relationship between brain tissue partitioning and microemulsion retention factors of CNS drugs” (J Med Chem, 2009)

Assays:
[1] = Lipophilicity, log P by microemulsion electrokinetic chromatography; format: physicochemical
[2] = Lipophilicity, log P of the compound; format: physicochemical; settings: octanol/water
[3] = Lipophilicity, log D at pH 7.4 by liquid chromatography; format: physicochemical; settings: buffer
[4] = Fraction unbound in rat brain; format: ADME, tissue-based
[5] = Dissociation constant, pKa by capillary electrophoresis; format: physicochemical
[6] = Dissociation constant, pKa by mass spectrometry; format: physicochemical

Row | SMILES | logP ([1]; read-out: logP) | logP ([2]; read-out: logP) | logD [3] | also measured
1 | NC(=O)N1c2ccccc2C=Cc2ccccc21 [CARBAMAZEPINE] | 2.29 | 2.34 |  | 
2 | C=CCc1ccccc1OCC(O)CNC(C)C (stereo not given) [ALPRENOLOL] | 3.57 | 2.99 |  | 
3 | OCCN1CCN(CCCN2c3ccccc3Sc3ccc(Cl)cc32)CC1 [PERPHENAZINE] | 3.83 |  | 4.1 | fraction unbound [4]: 0.004; pKa [5]: 8.04; pKa [6]: 3.72
4 | C[C@]12CCC(=O)C=C1CC[C@@H]1[C@@H]2[C@@H](O)C[C@@]2(C)[C@H]1CC[C@]2(O)C(=O)CO [HYDROCORTISONE] | 2.38 | 1.65 |  | 
5 | CC(C)NCC(O)COc1cccc2[nH]ccc12 (stereo not given) [PINDOLOL] | 1.71 |  |  | 
6 | Cc1ccc(-c2nc3ccc(C)cn3c2CC(=O)N(C)C)cc1 [ZOLPIDEM] | 2.2 |  | 2.3 | 
7 | CCCCNc1ccc(C(=O)OCCN(C)C)cc1 [TETRACAINE] |  | 3.46 |  | 
8 | CN(C)CCC=C1c2ccccc2C=Cc2ccccc21 [CYCLOBENZAPRINE] | 4.81 |  |  | 
9 | CNS(=O)(=O)Cc1ccc2[nH]cc(CCN(C)C)c2c1 | 1.41 |  | < 0 | fraction unbound [4]: 0.724; pKa [5]: 9.68
10 | COCCc1ccc(OCC(O)CNC(C)C)cc1 (stereo not given) [METOPROLOL] | 2.08 |  |  | 
11 | CCCN1C[C@H](CSC)C[C@@H]2c3cccc4[nH]cc(c34)C[C@H]21 [PERGOLIDE] | 4.22 |  | 3 | fraction unbound [4]: 0.027; pKa [5]: 8.78
12 | O=C(CCCN1CCC(O)(c2ccc(Cl)cc2)CC1)c1ccc(F)cc1 [HALOPERIDOL] | 3.53 | 3.67 |  | 
13 | Fc1ccc([C@@H]2CCNC[C@H]2COc2ccc3c(c2)OCO3)cc1 [PAROXETINE] | 4.07 |  |  | 
14 | OCCOCCN1CCN(C(c2ccccc2)c2ccc(Cl)cc2)CC1 (stereo not given) [HYDROXYZINE] |  |  | 3.6 | logP [1]: 4
15 | Clc1cccc(Cl)c1N=C1NCCN1 [CLONIDINE] | 1.08 | 1.57 |  | 
16 | Nc1c2c(nc3ccccc13)CCCC2 [TACRINE] |  |  |  | fraction unbound [4]: 0.124
17 | Cc1ncc2n1-c1ccc(Cl)cc1C(c1ccccc1F)=NC2 [MIDAZOLAM] | 3.65 |  | 3.38 | 
18 | CCN(CC)CCNC(=O)c1cc(Cl)c(N)cc1OC [METOCLOPRAMIDE] |  |  |  | fraction unbound [4]: 0.365
19 | OCCOCCN1CCN(C2=Nc3ccccc3Sc3ccccc32)CC1 [QUETIAPINE] | 3.54 |  | 3.4 | fraction unbound [4]: 0.025; pKa [5]: 6.91; pKa [6]: 3.64
20 | CN(C)CCC=C1c2ccccc2COc2ccccc21 [DOXEPIN] | 4.07 | 4.29 | 2.3 | fraction unbound [4]: 0.025; pKa [5]: 9.37
21 | Nc1nnc(-c2cccc(Cl)c2Cl)c(N)n1 [LAMOTRIGINE] | 1.6 |  | < 0 | 
22 | CCOC(=O)c1ccc(N)cc1 [BENZOCAINE] | 1.79 | 1.89 |  | 
23 | CN1CCCCC1CCN1c2ccccc2Sc2ccc([S+](C)[O-])cc21 (stereo not given) [MESORIDAZINE] | 4.26 |  | 1.7 | fraction unbound [4]: 0.016; pKa [5]: 9.61
24 | Cc1cc2c(s1)Nc1ccccc1N=C2N1CCN(C)CC1 [OLANZAPINE] | 3.21 |  |  | fraction unbound [4]: 0.034; pKa [5]: 8.5; pKa [6]: 4.66
25 | CC(NC(C)(C)C)C(=O)c1cccc(Cl)c1 (stereo not given) [BUPROPION] | 3.76 | 3.21 |  | 
26 | COc1ccc(C(CN(C)C)C2(O)CCCCC2)cc1 (stereo not given) [VENLAFAXINE] | 3.2 |  | 1 | 
27 | NC12CC3CC(CC(C3)C1)C2 [AMANTADINE] | 2.82 |  | < 0 | fraction unbound [4]: 0.233

Row | SMILES | logP ([1]; read-out: logP) | logP ([2]; read-out: logP) | logD [3] | also measured
28 | CN1CCOC(c2ccccc2)c2ccccc2C1 (stereo not given) [NEFOPAM] | 3.2 | 3.02 |  | 
29 | CSc1ccc2c(c1)N(CCC1CCCCN1C)c1ccccc1S2 (stereo not given) [THIORIDAZINE] |  |  | 4.4 | logP [1]: 4.75; fraction unbound [4]: 0.001
30 | Cc1nc2n(c(=O)c1CCN1CCC(c3noc4cc(F)ccc34)CC1)CCCC2 [RISPERIDONE] | 2.86 |  | 1.71 | 
31 | CCCC(C)(COC(N)=O)COC(=O)NC(C)C (stereo not given) [CARISOPRODOL] | 2.4 |  |  | 
32 | CN1C(C(=O)Nc2ccccn2)=C(O)c2ccccc2S1(=O)=O [PIROXICAM] | 1.45 | 1.68 |  | 
33 | CNCCCC12CCC(c3ccccc31)c1ccccc12 [MAPROTILINE] | 4.67 |  |  | fraction unbound [4]: 0.006; pKa [5]: 10.6
34 | COc1cc(NC(C)CCCN)c2ncccc2c1 (stereo not given) [PRIMAQUINE] |  | 3 |  | logP [1]: 3.8
35 | CN1CCN(C2=Nc3ccccc3Oc3ccc(Cl)cc32)CC1 [LOXAPINE] |  |  |  | fraction unbound [4]: 0.011
36 | CN1CCN(C2=Nc3cc(Cl)ccc3Nc3ccccc32)CC1 [CLOZAPINE] | 3.6 | 4.1 | 3.48 | 
37 | CCOC(=O)c1ncn2c1CN(C)C(=O)c1cc(F)ccc1-2 [FLUMAZENIL] | 0.92 | 1.64 |  | 
38 | O=C(c1ccccc1)c1ccc2n1CCC2C(=O)O (stereo not given) [KETOROLAC] |  |  |  | logP [1]: 1.68; logP [2]: 1.26
39 | COc1ccc(Cc2nccc3cc(OC)c(OC)cc23)cc1OC [PAPAVERINE] | 2.73 |  |  | 
40 | COC(=O)Nc1nc2ccc(C(=O)c3ccccc3)cc2[nH]1 [MEBENDAZOLE] | 2.26 | 2.42 |  | 
41 | CCN(CC)CCOC(=O)c1ccc(N)cc1 [PROCAINE] | 2.18 | 2.2 |  | 
42 | CC(C)n1c(/C=C/C(O)CC(O)CC(=O)O)c(-c2ccc(F)cc2)c2ccccc21 (stereo not given) [FLUVASTATIN] | 3.92 |  |  | 
43 | CNCCC=C1c2ccccc2CCc2ccccc21 [NORTRIPTYLINE] | 4.36 | 4.39 | 2.8 | 
44 | CN(C)CCCN1c2ccccc2Sc2ccc(Cl)cc21 [CHLORPROMAZINE] |  | 4.74 |  | 
45 | COc1ccc(CN(CCN(C)C)c2ccccn2)cc1 [PYRILAMINE] |  | 3.12 |  | 
46 | Clc1ccc2c(c1)C(N1CCNCC1)=Nc1ccccc1O2 [AMOXAPINE] | 3.71 |  | 2.4 | fraction unbound [4]: 0.01; pKa [5]: 8.71; pKa [6]: 3.38
47 | C[C@]12C[C@H](O)[C@H]3[C@@H](CCC4=CC(=O)CC[C@@]43C)[C@@H]1CC[C@@H]2C(=O)CO [CORTICOSTERONE] | 2.9 | 2.2 |  | 
48 | CN1CCN2c3ncccc3Cc3ccccc3C2C1 (stereo not given) [MIRTAZAPINE] | 3.48 |  | 2.3 | fraction unbound [4]: 0.08; pKa [5]: 7.79; pKa [6]: 3.59
49 | CNC(=C[N+](=O)[O-])NCCSCc1ccc(CN(C)C)o1 [RANITIDINE] | 1.06 | 1.28 |  | 
50 | c1ccc(-c2ccc(C(c3ccccc3)n3ccnc3)cc2)cc1 (stereo not given) [BIFONAZOLE] | 5.56 |  |  | 
51 | O=c1n(CCCN2CCN(c3cccc(Cl)c3)CC2)nc2ccccn12 [TRAZODONE] | 2.92 |  | 2.99 | 
52 | COC(=O)C(c1ccccc1)C1CCCCN1 (stereo not given) [METHYLPHENIDATE] | 2.67 |  | 0.4 | 
53 | CN1CCC[C@H]1c1cccnc1 [NICOTINE] | 1.22 | 1.39 |  | 
